Source: ChEMBL document CHEMBL1201862, “PubChem BioAssay data set” (2004)
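Test compounds were applied to cells in 96-well plates for 48 hours at 5 doses. GI50 = concentration required for 50% inhibition of growth.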 The source made the active and inactive calls. Rule as the data show it: active = GI50 up to about 1.1 µM and inactive = higher.

Legend:
Assay in all cases: NCI tumour cell line growth inhibition, 48 h
A549 = system: A549
ACHN = system: ACHN
CAKI-1 = system: CAKI-1
CCRF-CEM = system: CCRF-CEM
COLO 205 = system: COLO 205
HCT-15 = system: HCT-15
HL-60 = system: HL-60
IGROV-1 = system: IGROV-1
K562 = system: K562
MDA-MB-231 = system: MDA-MB-231
MDA-N = system: MDA-N
MOLT-4 = system: MOLT-4
NCI-H226 = system: NCI-H226
NCI-H23 = system: NCI-H23
OVCAR-3 = system: OVCAR-3
RPMI-8226 = system: RPMI-8226
SF-295 = system: SF-295
SNB-19 = system: SNB-19
T47D = system: T47D
UACC-257 = system: UACC-257

| SMILES | GI50 (A549) | GI50 (ACHN) | GI50 (CAKI-1) | GI50 (CCRF-CEM) | GI50 (COLO 205) | GI50 (HCT-15) | GI50 (HL-60) | GI50 (IGROV-1) | GI50 (K562) | GI50 (MDA-MB-231) | GI50 (MDA-N) | GI50 (MOLT-4) | GI50 (NCI-H226) | GI50 (NCI-H23) | GI50 (OVCAR-3) | GI50 (RPMI-8226) | GI50 (SF-295) | GI50 (SNB-19) | GI50 (T47D) | GI50 (UACC-257) |
| --- | --- | --- | --- | --- | --- | --- | --- | --- | --- | --- | --- | --- | --- | --- | --- | --- | --- | --- | --- | --- |
| c1ccc2nc3c(nc2c1)sc1nc2ccccc2n13 | > 100 µM (inactive) | 92 µM (inactive) | > 100 µM (inactive) | > 100 µM (inactive) | > 100 µM (inactive) | > 100 µM | > 100 µM (inactive) | > 100 µM (inactive) | > 100 µM (inactive) | > 100 µM (inactive) | > 100 µM (inactive) | > 100 µM (inactive) | > 100 µM (inactive) | > 100 µM (inactive) | > 100 µM (inactive) | > 100 µM (inactive) | 45 µM (inactive) | 93.8 µM (inactive) | 8 µM (inactive) | > 100 µM (inactive) |
| O=C(CCCN1CCC2(CC1)/C(=N/C1CCCCC1)NC(=O)N2c1ccccc1)c1ccc(F)cc1 | 44.4 µM (inactive) | 31.7 µM (inactive) | > 100 µM (inactive) | 23.4 µM (inactive) | 16.1 µM (inactive) | 28.3 µM | 23.1 µM (inactive) | 26.7 µM (inactive) | 29.8 µM (inactive) | 12.4 µM (inactive) | 18.2 µM (inactive) | 21.9 µM (inactive) | 14.9 µM (inactive) | 21.3 µM (inactive) | 11.6 µM (inactive) | 20.9 µM (inactive) | 19.5 µM (inactive) | > 100 µM (inactive) | 29.9 µM (inactive) | 21.5 µM (inactive) |
| O=C1c2cc([N+](=O)[O-])sc2C(=O)c2cc([N+](=O)[O-])sc21 | 20.2 µM (inactive) | 3.85 µM (inactive) | 3.76 µM (inactive) | 0.711 µM (active) | 2.02 µM (inactive) | 1.73 µM | 0.0957 µM (active) | 1.56 µM (inactive) | 0.432 µM (active) | 2.07 µM (inactive) | 2.34 µM (inactive) | 2.84 µM (inactive) | 12.3 µM (inactive) | 5.26 µM (inactive) | 2.41 µM (inactive) | 0.535 µM (active) | 8.2 µM (inactive) | 3.85 µM (inactive) | 3.55 µM (inactive) | 5.16 µM (inactive) |
| CCNC(=O)Cc1nc2c(O)ncnc2n1C1OC(CO)C(O)C1O (stereo not given) | > 100 µM (inactive) | > 100 µM (inactive) | > 100 µM (inactive) | > 100 µM (inactive) | > 100 µM (inactive) | > 100 µM | > 100 µM (inactive) | > 100 µM (inactive) | > 100 µM (inactive) | > 100 µM (inactive) | > 100 µM (inactive) | > 100 µM (inactive) | > 100 µM (inactive) | > 100 µM (inactive) | > 100 µM (inactive) | > 100 µM (inactive) | > 100 µM (inactive) | > 100 µM (inactive) | > 100 µM (inactive) | > 100 µM (inactive) |
| COC(=O)CNC(=O)C(Cc1ccccc1)NC(=O)c1ccc(-c2ccc(Cl)cc2Cl)o1 (stereo not given) | 25 µM (inactive) | 18.9 µM (inactive) | 19.2 µM (inactive) | 10.1 µM (inactive) | 14.6 µM (inactive) | 23.3 µM | 12.2 µM (inactive) | 18.7 µM (inactive) | 21.3 µM (inactive) | 19 µM (inactive) | 24.8 µM (inactive) | 14.3 µM (inactive) | 48.4 µM (inactive) | 23.7 µM (inactive) | 22.4 µM (inactive) | 12.3 µM (inactive) | 18.7 µM (inactive) | 35.3 µM (inactive) | 20.7 µM (inactive) | 17.8 µM (inactive) |
| C/C=C/[C@@H](C(=O)OC)N1C(=O)c2ccccc2[C@H]1O | > 100 µM (inactive) | > 100 µM (inactive) | > 100 µM (inactive) | > 100 µM (inactive) | > 100 µM (inactive) | > 100 µM | > 100 µM (inactive) | > 100 µM (inactive) | > 100 µM (inactive) | > 100 µM (inactive) | > 100 µM (inactive) | > 100 µM (inactive) | > 100 µM (inactive) | > 100 µM (inactive) | > 100 µM (inactive) | > 100 µM (inactive) | > 100 µM (inactive) | > 100 µM (inactive) | > 100 µM (inactive) | > 100 µM (inactive) |
| CSc1c(C#N)c(N)nc2c(/N=N\c3ccc(Cl)cc3)c(N)nn12 | 25 µM (inactive) | 5.66 µM (inactive) | 18.7 µM (inactive) | 2.17 µM (inactive) | 13.5 µM (inactive) | 2.26 µM | 2.31 µM (inactive) | 1.85 µM (inactive) | 2.08 µM (inactive) | 2.04 µM (inactive) | 8.04 µM (inactive) | 2.44 µM (inactive) | 16.9 µM (inactive) | 2.6 µM (inactive) | 1.85 µM (inactive) | 2.6 µM (inactive) | 22.9 µM (inactive) | 17.3 µM (inactive) | 1.67 µM (inactive) | 3.27 µM (inactive) |
